Data: patent publication US9079853B2, “Isatin compounds, compositions and methods for treatment of degenerative diseases and disorders” (MUSC FOUNDATION FOR RESEARCH DEVELOPMENT, priority 2013, dated 2015)

Legend:
661W or C6 cells [1] = experiment: MTT assay, protection against calcium-ionophore A23187; format: cell-based; conditions: 1 μM A23187, 24 h
Experimental: The compound 3-(4,5-Dimethylthiazol-2-yl)-2,5-diphenyltetrazolium bromide (MTT) is a tetrazolium ion that is reduced to a blue formazan dye via several families of NAD(P)H-dependent oxidoreductases. Formation of the formazan dye from MTT or other related tetrazolium dyes are commonly used as a viability assay even though, in fact, the assay is a metabolic capacity assay.
In this assay, 661W or C6 cells were maintained in DMEM supplemented with 10% FBS. 100 μL of 70,000 cells/mL cells were seeded into each well of 96 well plates using DMEM supplemented with 5% FBS. Cells were then allowed to grow to confluency for 48 hours. The compounds of the invention were added in 2 μL media and calcium-ionophore A23187 was then added in 1 μL for a final concentration of 1 μM and after 24 h, 20 μL of […] MTT were added to each well and the cells were incubated for another 4 h after which 100 μL of 1% SDS in 0.01M aqueous HCl were added to each well and the plates were incubated overnight. Absorbance was measured at […] (background correction). The 1 μM ionophore A23187 caused about 50% loss in MTT signal at 24 h. Protection was calculated as the increase in absorbance of treatment groups normalized to the vehicle control.

661W or C6 cells [2] = experiment: XF FCCP-uncoupled oxygen consumption rate assay (IBMX challenge); format: cell-based; conditions: 1 h pretreatment, 600 μM IBMX, 24 h, read-out: XF FCCP OCR (% Ctrl); for activity at 0.001 µM: compound 1 nM;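 on all read-outs here: values normalized to the vehicle control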
Experimental: The XF FCCP-uncoupled oxygen consumption rate assay assesses mitochondrial capacity by measuring cellular respiration. It was shown that the maximum FCCP-uncoupled oxygen consumption rate (OCR) was a good estimate of maximal mitochondrial capacity (Beeson 2010) and that IBMX treatment of 661W or C6 cells for 24 h caused a loss in maximal uncoupled OCR (Perron 2013). Thus, cells were pretreated with the exemplified compounds for 1 h, added 600 μM IBMX and then measured the uncoupled rate after 24 h. In brief, the OCR measurements were performed using a Seahorse Bioscience XF instrument (Seahorse Bioscience, Billerica, Md.), as previously published (Perron 2013). O2 leakage through the plastic sides and bottom of the plate was accounted for using the AKOS algorithm in the XF software package. Cells were plated on 96- or 24-well custom plates designed for use in the XF and grown to confluency in DMEM+5% FBS (48 h). The medium was then replaced with DMEM+1% FBS for 24 h, along with any treatments.

[3] = tested on: rd1 mouse retina organ cultures; experiment: Retinal degeneration assay, rd1 mouse retinal explants; format: cell-based; conditions: rows of photoreceptors in ONL, explants cultured 11 days
Experimental: It was reasoned that the compounds' activities would enable them to protect against loss of photoreceptors in retinal degenerative animal models. As a translational bridge between the cell line-based assays and in vivo animal studies, mouse retina organ cultures were utilized. These retinal explants were a powerful ex vivo screening tool, which allowed the testing of photoreceptor cell survival within the retinal network, and the effects of a specific compound were tested like in an in vitro system, without systemic interference. In this assay, the rd1 mouse was utilized. The genotype of the rd1 mouse has a mutation in the β-subunit of the phosphodiesterase gene. […] The genetic deficit and the retinal pathology were very similar to that observed in the patients with βPDE-dependent RP. In these mice, rod photoreceptor degeneration started after postnatal day 10 (P10), progressing rapidly, such that at P21, only 1-2 rows of photoreceptor remained, mainly representing cones. Finally, the rd1 mouse retina was amenable to culturing, replicating both retinal development and degeneration, following the same time course as in vivo. The retinal explants were cultured for 11 days ex vivo. […] At the end of the experiments, tissues were fixed, sectioned and stained with 0.1% toluidine and the numbers of rows of photoreceptors remaining in the outer nuclear layer (ONL) were counted.

Balb/c mice = experiment: Light model assay (constant light damage, eyedrops); format: in vivo, mouse; conditions: continuous light 7 days, rows of photoreceptors
Text: The light model assay is generally accepted as a model of age related macular degeneration (AMD). […] In particular, oxidative damage has been detected by immunohistochemistry, detecting the presence of oxidized and tyrosine-phosphorylated proteins as well as the upregulation of endogenous antioxidants such as thioredoxin and glutathione peroxidase. […] Additional indirect evidence for the involvement of oxidative stress in photoreceptor degeneration has been provided by treatment of photodamaged retinas with antioxidants such as dimethylthiourea, or the treatment of N-methyl-N-nitrosourea (MNU)-challenged rats with the antioxidant DHA.
The light model assay was used to further test the therapeutic potential of the compounds of the invention. Photoreceptors from albino animals are very sensitive to constant light, lacking the RPE pigment to protect them. Thus, Balb/c mice were exposed to continuous light for 7 days, which caused loss of about 50% of the photoreceptor cells as measured via histology. To test the potential therapeutic efficacy, eyedrops were formulated in 0.1% Bij 35 in […], applied once or twice daily throughout the period of light exposure, and their effect assessed on the light-induced degeneration of photoreceptor cells morphologically and electrophysiologically, 10 days after the onset of the CL exposure.

[4] = tested on: retinal explants from Ser344ter-3 rats; experiment: S334ter assay, retinal explants; format: cell-based, rat; conditions: P12-P17 retinal explants
Experimental: To further evaluate neuroprotection, certain compounds of the invention were evaluated with the Ser344ter-3 rats in which a truncation in the rhodopsin […] eliminated a phosphorylation site. It has been shown that the Ser344ter-3 rhodopsin was extensively misfolded causing induction of ER stress genes BiP and CHOP (Kroeger 2012). […] Statistically significant protection against loss of photoreceptor cell nuclei was observed (Table 5 below).

CCCCN1C(=O)C(O)(CC(=O)c2ccccn2)c2ccccc21 (centres unmarked) [Example 12, 1-butyl-3-hydroxy-3-(2-oxo-2-(pyridin-2-yl)ethyl)indolin-2-one]
MTT, % protection (661W or C6 cells [1]; compound 10 μM): 67%,
activity at 10 µM (661W or C6 cells [2]; compound 10uM): 73%
rd1 protection (# of rows) ([3]; 5 μM): 5 μM, 3.19 # of rows
LD Protection (# of rows) (Balb/c mice; 1 mM eyedrops once per day): 5.33 # of rows
s334ter protection (# of rows) ([4]; 1 μM): 1 μM 3.86 # of rows

COc1cccc(C(=O)CC2(O)C(=O)N(CCCN=[N+]=[N-])c3ccc(C)cc32)n1 (centres unmarked) [Example 28, 1-(3-azidopropyl)-3-hydroxy-3-(2-(6-methoxypyridin-2-yl)-2-oxoethyl)-5-methylindolin-2-one]
MTT, % protection (661W or C6 cells [1]; compound 1 μM): 65.9%,
LD Protection (# of rows) (Balb/c mice; 1 mM eyedrops once per day): 5.55 # of rows

CCN1C(=O)C(O)(Cc2cc(OC)c(OC)c(OC)c2)c2cc(C)ccc21 (centres unmarked) [Example 34, 1-ethyl-3-hydroxy-5-methyl-3-(3,4,5-trimethoxybenzyl)indolin-2-one]
MTT, % protection (661W or C6 cells [1]; compound 1 nM): 82.4%,
activity at 0.001 µM (661W or C6 cells [2]): 94%
LD Protection (# of rows) (Balb/c mice; 10 μM eyedrops once per day): 5.47 # of rows

COc1ccc(O)c(CC2(OC(=O)c3ccccc3)C(=O)N(CCCC(C)C)c3ccc(C)cc32)c1 (centres unmarked) [Example 58, 3-(2-hydroxy-5-methoxybenzyl)-5-methyl-1-(4-methylpentyl)-2-oxoindolin-3-yl benzoate]
MTT, % protection (661W or C6 cells [1]; compound 100 nM): 100%,
activity at 0.001 µM (661W or C6 cells [2]): 97%
LD Protection (# of rows) (Balb/c mice; 100 μM eyedrops once per day): 6.06 # of rows
s334ter protection (# of rows) ([4]; 50 nM): 50 nM, 2.73 # of rows

C#CCCCN1C(=O)C(O)(CC(=O)c2c[nH]c3ccccc23)c2cc(C)ccc21 (centres unmarked) [Example 13, 3-(2-(1H-indol-3-yl)-2-oxoethyl)-3-hydroxy-5-methyl-1-(pent-4-yn-1-yl)indolin-2-one]
MTT, % protection (661W or C6 cells [1]; compound 100 nM): 79.4%,
LD Protection (# of rows) (Balb/c mice; 1 mM eyedrops once per day): 5.44 # of rows

CCN1C(=O)C(Cc2cccc(OC)c2O)(OC(=O)c2ccccc2)c2cc(Cl)ccc21 (centres unmarked) [Example 59, 5-chloro-1-ethyl-3-(2-hydroxy-3-methoxybenzyl)-2-oxoindolin-3-yl benzoate]
MTT, % protection (661W or C6 cells [1]; compound 1 μM): 117.4%,
activity at 0.001 µM (661W or C6 cells [2]): 92%
LD Protection (# of rows) (Balb/c mice; 100 μM eyedrops once per day): 5.98 # of rows

CCCN1C(=O)C(O)(CC(=O)c2c[nH]c3ccccc23)c2cc(Cl)ccc21 (centres unmarked) [Example 31, 3-(2-(1H-indol-3-yl)-2-oxoethyl)-5-chloro-3-hydroxy-1-propylindolin-2-one]
MTT, % protection (661W or C6 cells [1]; compound 1 nM): 64.2%,
activity at 0.001 µM (661W or C6 cells [2]): 74%
rd1 protection (# of rows) ([3]; 10 nM): 10 nM, 2.53 # of rows
LD Protection (# of rows) (Balb/c mice; 1 mM eyedrops once per day): 5.94 # of rows
